Results published in patent publication US20240261307A1, “INHIBITORS OF SARS-COV-2 VIRAL REPLICATION AND USES THEREOF” (ARIZONA BOARD OF REGENTS ON BEHALF OF THE UNIVERSITY OF …, priority 2021, published 2024).
“Also recorded” adds a separate entry of the source. Non-standard residues stand in square brackets, D forms with d. Residues, ends and D or L forms follow the SMILES beside them. No end group written: not given here. Hyp = O=C(O)[C@@H]1C[C@@H](O)CN1; aThr = C[C@H](O)[C@H](N)C(=O)O

Key:
SARS-CoV-2 [1] = experiment: Viral reduction plaque assay in Vero cells; format: cell-based; set-up: key to Inhibition of Infection: ++: Validated strong inhibitor; +/−: Validated modest inhibitor; −: Validated no effect; conditions: for Inhibition of Infection: in-vitro experiments, SARS-CoV2; for number of infected cells compared to positive control: Vero cells, increasing concentrations, 4 days
SARS-CoV-2 [2] = format: cell-based
SARS-CoV-2 [3] = experiment: Cytopathic effect (CPE) assay in Vero cells with P-gp inhibitor CP-100356; format: cell-based; conditions: for EC50: Severe acute respiratory syndrome coronavirus 2, read-out: EC50 of inhibition of virus-induced CPE
West Nile virus (WNV) = experiment: WNV replication in Vero cells by viral foci assay; format: cell-based; conditions: 100 μM
Excerpt: To exclude such possibilities, we tested the ability of any of the 4 active compounds plus one negative control compound to suppress the replication of West Nile virus (WNV), an RNA virus of the unrelated flavivirus family. […] Together, our experiments confirmed compounds ZINC000008077555, ZINC000230464020, ZINC000006623878, and ZINC000085876900 as specific inhibitors of SARS-CoV-2 replication but not interfering with the host cell.
The number of infectious SARS-CoV-2 virions was quantified by viral plaque assay. To this end, Vero cells were incubated with SARS-CoV-2 for 2 hrs and subsequently overlaid with 1% methylcellulose in culture medium. After 3-4 days, the cells were fixed in 10% formalin for 30 min, washed under tap water, and stained with crystal violet. The number of plaques corresponding to infections of individual cells by single virions was counted on a light table. The quantification of infectious WNV virions was performed similarly with the exception that the number of infected cell foci was determined by intracellular staining using a biotinylated anti-WNV-E antibody (clone E16), followed by an HRP-labeled anti-streptavidin antibody. HRP activity was detected with KPL Trueblue substrate (SeraCare).
Viral replication of SARS-CoV-2 in the presence of Mpro inhibitors was measured in Vero or Calu-3 cells in three ways. […] The virus-induced cytopathic effect was measured by determining the fraction of formalin-fixed adherent cells that remained after 3 days (Vero cells) or 4 days (Calu-3 cells). To this end, the cells were stained with crystal violet, PBS-washed, and air-dried. Following resuspension in methanol, crystal violet staining was measured in the spectrophometer at OD594. Cytotoxicity of the compounds was measured in parallel by the staining of uninfected cells incubated with the […]. In a second approach, drug activity was determined in Vero cells directly by viral plaque assay, using between 100-500 Pfu/well of virus and indicated concentrations of Mpro inhibitors. In a third approach, Vero cells were infected with SARS-CoV-2 or WNV at an MOI of 0.01 in the presence of […] of Mpro inhibitors for 2-3 days. Viral replication was measured indirectly at indicated time points by quantifying the titers of infectious virions in the supernatants with viral plaque or foci assays in the absence of the compounds. Viral replication in Calu-3 cells in the presence of indicated concentrations of compounds was determined similarly.

[4] = tested on: type I IFNs, ISGs, proinflammatory cytokines; format: cell-based, human; conditions: for type I IFNs, proinflammatory cytokines and ISGs in infected cells: cell line not given
Vero cells = conditions: 100 μM, with 2 μM CP-100356
Method: Vehicle-treated cells served as controls. The amounts of infectious virions in the cell supernatants were determined 2 days later by viral plaque assay.

| Compound | Inhibition of Infection (SARS-CoV-2 [1]) | SARS-CoV-2 replication (viral titers in culture medium) (SARS-CoV-2 [2]) | suppression of SARS-CoV-2 replication, post-treatment (SARS-CoV-2 [2]) | suppression of SARS-CoV-2 replication, pre-treatment (SARS-CoV-2 [2]) | suppression of viral replication (SARS-CoV-2 [2]) | EC50 (SARS-CoV-2 [3]) [µM] | replication of WNV (West Nile virus (WNV)) | type I IFNs, proinflammatory cytokines and ISGs in infected cells [4] | number of infected cells compared to positive control (SARS-CoV-2 [1]) | replication of WNV (West Nile virus (WNV); listed as ZINC00000807555) | toxicity (Vero cells) | expression of type I IFNs, ISGs and proinflammatory cytokines vs cells infected without compound [4] | activity against virus-induced CPE (SARS-CoV-2 [3]) | replication of WNV (West Nile virus (WNV); listed as ZINC0002304644020) |
| --- | --- | --- | --- | --- | --- | --- | --- | --- | --- | --- | --- | --- | --- | --- |
| CC(C)n1[nH]c(=O)c2c(-c3ccc(O)c(O)c3)c3oc4c(O)c(=O)ccc4c3[nH]c21 [ZINC000085879857, 10-(3,4-dihydroxyphenyl)-6-hydroxy-14-propan-2-yl-8-oxa-13,14,16-triazatetracyclo[7.7.0.02,7.011,15]hexadeca-1,3,6,9,11(15)-pentaene-5,12-dione] | − |  |  |  |  |  |  |  |  |  |  |  |  |  |
| COc1ccc(CNC(=O)Cc2c(C)c3ccc(O)c(O)c3oc2=O)c(OC)c1 [ZINC000006623878, 2-(7,8-dihydroxy-4-methyl-2-oxochromen-3-yl)-N-[(2,4-dimethoxyphenyl)methyl]acetamide] | ++ | suppress SARS-CoV-2 replication | significant suppression | significant suppression | approximately 10 fold | 4.6 to 22.6 | did not significantly restrict replication of WNV; also recorded: do not impact WNV replication | enhance | significant drop |  |  |  |  |  |
| NC(=O)CC[C@H](NC(=O)OCc1ccccc1)C(=O)NCCc1ccc(F)cc1 [ZINC000008077555, benzyl N-[(2S)-5-amino-1-[2-(4-fluorophenyl)ethylamino]-1,5-dioxopentan-2-yl]carbamate] | +/− | suppress SARS-CoV-2 replication |  |  | approximately 10 fold | 4.6 to 22.6 | did not significantly restrict replication of WNV | enhance | significant drop | do not impact WNV replication |  |  |  |  |
| RYLGYL [ZINC000097972782, (2S)-2-[[(2S)-2-[[2-[[(2S)-2-[[(2S)-2-[[(2S)-2-amino-5-(diaminomethylideneamino)pentanoyl]amino]-3-(4-hydroxyphenyl)propanoyl]amino]-4-methylpentanoyl]amino]acetyl]amino]-3-(4-hydroxyphenyl)propanoyl]amino]-4-methylpentanoic acid] | − |  |  |  |  |  |  |  |  |  |  |  |  |  |
| Nc1ncnc2c1ncn2[C@@H]1O[C@H](COP(=O)(O)OP(=O)(O)OP(=O)(O)OC[C@@H]2O[C@H](n3cnc4c(N)ncnc43)[C@H](O)[C@@H]2O)[C@H](O)[C@@H]1O [ZINC000085591448, [[(2S,3S,4R,5S)-5-(6-aminopurin-9-yl)-3,4-dihydroxyoxolan-2-yl]methoxy-hydroxyphosphoryl] [[(2R,3R,4S,5R)-5-(6-aminopurin-9-yl)-3,4-dihydroxyoxolan-2-yl]methoxy-hydroxyphosphoryl] hydrogen phosphate] | − |  |  |  |  |  |  |  |  |  |  |  |  |  |
| COc1ccc(-c2coc3c4c(cc(O)c3c2=O)OC(=O)C[C@@H]4c2ccc(OCC(N)=O)cc2)cc1 [ZINC000085876900, 2-[4-[(10R)-5-hydroxy-3-(4-methoxyphenyl)-4,8-dioxo-9,10-dihydropyrano[2,3-h]chromen-10-yl]phenoxy]acetamide] |  | suppress SARS-CoV-2 replication | significant suppression | significant suppression | approximately 10 fold | 4.6 to 22.6 | did not significantly restrict replication of WNV; also recorded: do not impact WNV replication | enhance | significant drop |  | toxic | significantly higher expression |  |  |
| C[C@H](NC(=O)[C@H](N)Cc1ccc(O)cc1)C(=O)N[C@H](Cc1ccccc1)C(=O)N1C[C@H](O)C[C@H]1C(=O)N[C@@H](Cc1ccc(O)cc1)C(N)=O [ZINC000644163977, (2S,4R)-N-[(2S)-1-amino-3-(4-hydroxyphenyl)-1-oxopropan-2-yl]-1-[(2R)-2-[[(2S)-2-[[(2R)-2-amino-3-(4-hydroxyphenyl)propanoyl]amino]propanoyl]amino]-3-phenylpropanoyl]-4-hydroxypyrrolidine-2-carboxamide] (H-[dY]A[dF][Hyp]Y-NH2) | +/− | did not |  |  |  |  |  |  | modest |  |  |  | negligible activity |  |
| COc1cc([C@H](CC(=O)NCCc2ccc(O)c(O)c2)c2c(O)nc3ccccn3c2=O)cc2c1OCCO2 [ZINC000230464020, (3S)-N-[2-(3,4-dihydroxyphenyl)ethyl]-3-(2-hydroxy-4-oxopyrido[1,2-a]pyrimidin-3-yl)-3-(5-methoxy-2,3-dihydro-1,4-benzodioxin-7-yl)propanamide] |  | suppress SARS-CoV-2 replication | significant suppression | significant suppression | approximately 10 fold | 4.6 to 22.6 | did not significantly restrict replication of WNV | enhance | significant drop |  |  | significantly higher expression |  | do not impact WNV replication |
| C[C@H](O)[C@H](N)C(=O)N[C@@H](Cc1ccc(O)cc1)C(=O)N[C@@H](CCCCN)C(=O)O [ZINC000005462364, (2S)-6-amino-2-[[(2S)-2-[[(2S,3S)-2-amino-3-hydroxybutanoyl]amino]-3-(4-hydroxyphenyl)propanoyl]amino]hexanoic acid] (H-[aThr]-Tyr-Lys-OH) | − |  |  |  |  |  |  |  |  |  |  |  |  |  |
